Laboratory results: patent publication US20160016907A1, “PYRIDINE DERIVATIVES AS MUSCARINIC M1 RECEPTOR POSITIVE ALLOSTERIC MODULATORS” (PFIZER INC., priority 2014, published 2016)

biological target: T1, human M1 muscarinic acetylcholine receptors (Homo sapiens, UniProt P11229); test: M1 FLIPR assay (PAM, intracellular calcium); type: cell-based; settings: potentiation of EC10-EC30 acetylcholine, values marked a: geometric mean of ≧7 determinations, read-out: M1 PAM Inflection Point (μM) Geometric mean of 2-6 determinations (unless otherwise indicated)
T1 sequence (P11229 1-460): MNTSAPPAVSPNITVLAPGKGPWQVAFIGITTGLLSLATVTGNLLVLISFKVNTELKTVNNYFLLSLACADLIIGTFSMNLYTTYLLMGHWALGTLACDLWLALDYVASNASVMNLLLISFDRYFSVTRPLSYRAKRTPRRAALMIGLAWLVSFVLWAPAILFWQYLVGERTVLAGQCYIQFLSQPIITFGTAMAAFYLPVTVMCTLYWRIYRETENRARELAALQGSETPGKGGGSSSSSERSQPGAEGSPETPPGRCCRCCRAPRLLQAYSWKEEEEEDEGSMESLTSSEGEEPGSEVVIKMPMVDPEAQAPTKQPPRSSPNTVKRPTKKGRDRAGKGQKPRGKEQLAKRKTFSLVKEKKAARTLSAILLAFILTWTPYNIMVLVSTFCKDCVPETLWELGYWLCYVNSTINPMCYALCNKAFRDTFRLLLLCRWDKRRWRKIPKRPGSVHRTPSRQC
Protocol: This assay was designed to select and characterize compounds that affect the activity of human M1 muscarinic acetylcholine receptors (Similar M1 PAM FLIPR assays can be found, for example, at U.S. Pat. No. 8,664,234). Human M1 receptors were stably expressed in Chinese hamster ovary (CHO) cells (HD Bioscience). The effect of test compounds on intracellular calcium was measured on an FLIPR Tetra (Molecular Devices) using the Fluo-8, AM calcium dye (Molecular Probes) with a red dye quenching agent (Sigma).
CHO cells expressing hM1 cells had been previously cultured and frozen in assay ready vials. Cell vials were thawed, then plated at a density of 10,000 cells per well in a 384 well black wall, clear bottom plate (Greiner #781090) and incubated overnight at 37 degrees C. with 5% CO2. Cells were grown and plated in F12 nutrient media (Gibco BRL #21700-075) supplemented with 10% FBS (Hyclone #CH30160.03) and Pen/Strep (Gibco #15070-063).
After overnight incubation, cell plates were removed from the incubator and the growth media was discarded and replaced with loading solution containing the following: 2 μM Fluo-8-AM (Molecular Probes #F14242), 2 mM Probenecid (Sigma #P8761), lx Acid Red 1 (Sigma #210633), in HBSS buffer containing (grams/L): 0.1 CaCl2, 0.1 MgCl2*6H2O, 0.049 MgSO4, 0.4 KCl, 0.06 KH2PO4, 8.06 NaCl, 0.12 Na2HPO4*12H2O, 1.1 D-glucose*H2O, 0.35 NaHCO3, 4.766 HEPES, pH 7.4. The plate was incubated in the loading solution at 37 degrees C. in the dark for 1 hour.
Test compounds were initially prepared as 100% DMSO stock solutions, then transferred and serially diluted in 384-well compound plates (Greiner #784201). Each compound was tested at 10 concentrations in duplicate per experiment. Positive and negative controls for positive allosteric modulator evaluation were 30 μM acetylcholine (Ach) and an EC10-EC30 concentration of acetylcholine, approximately 2 nM but could be adjusted for each experiment to maintain the EC10-EC30 range.
After the 1-hour dye loading incubation, test compounds were added to the cell plate containing Fluo-8. Approximately 10 minutes after compound addition, an EC10-EC30 concentration of acetylcholine was added to each well and the fluorescence measured to determine the PAM potentiation of the compound.
Data was exported from the FLIPR Tetra as maximum fluorescence/minimum fluorescence for each well. The percent effect for each compound well was determined using the mean values for the positive and negative controls on each plate for each read. Percent effect was 100*(compound negative control)/(positive control negative control). Dose response curves were fitted to the compound percent effect data using a 4-parameter logistic fit model to determine PAM (positive allosteric modulator) Inflection Point values. Compounds with inverted U dose response curves had the concentrations greater than the concentration giving the peak response excluded from the fit. Data was reported as Inflection Point. The compounds of Examples 1-72 had activity according to this assay, generally with an Inflection Point (IP) of 10 μM or less (using Inflection Point as a measure of activity). Such a result is indicative of the intrinsic activity of the compounds of the invention as M1 allosteric modulators.

Question: `Cc1cnc(C(=O)NC2CCOCC2O)cc1Cc1ccc(-c2cncs2)cc1` (single isomer, unassigned; ent-1) [Example 4, N-[(3,4-trans)-3-Hydroxytetrahydro-2H-pyran-4-yl]-5-methyl-4-[4-(1,3-thiazol-5-yl)benzyl]pyridine-2-carboxamide, ENT-1] was tested. Which EC50 did it give?
Answer: Its EC50 is 8.11 µM.

Question: For `Cc1cnc(C(=O)NC[C@H]2CCCO2)cc1Cc1ccc(-n2cccn2)cc1` [Example 43, 5-methyl-4-[4-(1H-pyrazol-1-yl)benzyl]-N-[(2R)-tetrahydrofuran-2-ylmethyl]pyridine-2-carboxamide], which EC50 is on record?
Answer: The EC50 was 9.25 µM.

Question: With `COc1cnc(C(=O)N[C@H]2CCCC[C@@H]2O)cc1Cc1ccc(-c2coc(C)n2)cc1` [Example 72, N-[(1S,2S)-2-hydroxycyclohexyl]-5-methoxy-4-[4-(2-methyl-1,3-oxazol-4-yl)benzyl]pyridine-2-carboxamide] as the compound, how does the EC50 read?
Answer: Its EC50 is 0.142 µM.

Question: `Cc1nc(-c2ccc(Cc3cc(C(=O)N[C@H]4CCOC[C@@H]4O)ncc3C)cc2)cs1` [Example 69, N-[(3R,4S)-3-hydroxytetrahydro-2H-pyran-4-yl]-5-methyl-4-[4-(2-methyl-1,3-thiazol-4-yl)benzyl]pyridine-2-carboxamide] was tested. Which EC50 did it give?
Answer: Its EC50 is 0.048 µM.

Question: `Cc1cnc(C(=O)NCC2(O)CCCC2)cc1Cc1ccc(-n2cccn2)cc1` [Example 27, N-[(1-hydroxycyclopentyl)methyl]-5-methyl-4-[4-(1H-pyrazol-1-yl)benzyl]pyridine-2-carboxamide] was tested. Which EC50 did it give?
Answer: The EC50 was 1.55 µM.

Question: `Cc1cnc(C(=O)NC[C@H](C)O)cc1Cc1ccc(-n2cccn2)cc1` [Example 36, N-[(2S)-2-hydroxypropyl]-5-methyl-4-[4-(1H-pyrazol-1-yl)benzyl]pyridine-2-carboxamide] was tested. Which EC50 did it give?
Answer: The EC50 was 6.65 µM.

Question: With `Cc1cnc(C(=O)N[C@H]2CCOC[C@@H]2O)cc1Cc1ccc(-c2ccn(C)n2)cc1` [Example 6, N-[(3R,4S)-3-Hydroxytetrahydro-2H-pyran-4-yl]-5-methyl-4-[4-(1-methyl-1H-pyrazol-3-yl)benzyl]pyridine-2-carboxamide] as the compound, how does the EC50 read?
Answer: The EC50 was 0.142 µM.

Question: How did the EC50 turn out when `Cc1cnc(C(=O)NC2CC3(COC3)C2)cc1Cc1ccc(-n2cccn2)cc1` [Example 28, 5-methyl-N-(2-oxaspiro[3.3]hept-6-yl)-4-[4-(1H-pyrazol-1-yl)benzyl]pyridine-2-carboxamide] was run?
Answer: The EC50 was 4.77 µM.

Question: Which EC50 does the source give for `Cc1cnc(C(=O)N[C@H]2CCOC[C@@H]2O)cc1Cc1ccc(-c2cscn2)cc1` [Example 7, N-[(3R,4S)-3-Hydroxytetrahydro-2H-pyran-4-yl]-5-methyl-4-[4-(1,3-thiazol-4-yl)benzyl]pyridine-2-carboxamide] here?
Answer: Its EC50 is 0.06 µM.

Question: `Cc1nnc(-c2ccc(Cc3cc(C(=O)NC4CCOCC4O)ncc3C)cc2)o1` (single isomer, unassigned) [Example 20] was tested. Which EC50 did it give?
Answer: Its EC50 is greater than 9.94 µM.

Question: How did the EC50 turn out when `Cc1cnc(C(=O)N[C@H]2CCCC[C@@H]2O)cc1Cc1ccc(-n2cccn2)cc1` [Example 18, N-[(1S,2S)-2-Hydroxycyclohexyl]-5-methyl-4-[4-(1H-pyrazol-1-yl)benzyl]pyridine-2-carboxamide] was run?
Answer: Its EC50 is 0.092 µM.

Question: Which EC50 does the source give for `Cc1cnc(C(=O)N[C@H]2CCOC[C@@H]2O)cc1Cc1ccc(-c2cnn(C)c2)cc1` [Example 67, N-[(3R,4S)-3-hydroxytetrahydro-2H-pyran-4-yl]-5-methyl-4-[4-(1-methyl-1H-pyrazol-4-yl)benzyl]pyridine-2-carboxamide] here?
Answer: The EC50 was 0.052 µM.

Question: For `Cc1cnc(C(=O)NC2CCCCC2(F)F)cc1Cc1ccc(-n2cccn2)cc1` (single isomer, unassigned) [Example 47], which EC50 is on record?
Answer: The EC50 was 0.57 µM.

Question: With `COc1cnc(C(=O)N[C@H]2CCOC[C@@H]2O)cc1Cc1ccc(-c2coc(C)n2)cc1` [Example 58, N-[(3R,4S)-3-Hydroxytetrahydro-2H-pyran-4-yl]-5-methoxy-4-[4-(2-methyl-1,3-oxazol-4-yl)benzyl]pyridine-2-carboxamide] as the compound, how does the EC50 read?
Answer: The EC50 was 0.086 µM.

Question: Which EC50 does the source give for `Cc1cnc(C(=O)N[C@H]2CC[C@@H](O)CC2)cc1Cc1ccc(-n2cccn2)cc1` [Example 29, N-(cis-4-hydroxycyclohexyl)-5-methyl-4-[4-(1H-pyrazol-1-yl)benzyl]pyridine-2-carboxamide] here?
Answer: Its EC50 is 3.82 µM.

Question: With `Cc1cnc(C(=O)NC2CCOCC2O)cc1Cc1ccc(-c2cncs2)cc1` (single isomer, unassigned; ent-2) [Example 5, N-[(3,4-trans)-3-Hydroxytetrahydro-2H-pyran-4-yl]-5-methyl-4-[4-(1,3-thiazol-5-yl)benzyl]pyridine-2-carboxamide, ENT-2] as the compound, how does the EC50 read?
Answer: Its EC50 is 0.18 µM.

Question: `COc1cnc(C(=O)N[C@H]2CCCC[C@@H]2O)cc1Cc1ccc(-n2cccn2)cc1` [Example 70, N-[(1S,2S)-2-hydroxycyclohexyl]-5-methoxy-4-[4-(1H-pyrazol-1-yl)benzyl]pyridine-2-carboxamide] was tested. Which EC50 did it give?
Answer: The EC50 was 0.104 µM.

Question: For `Cc1cnc(C(=O)N[C@H]2CCOC[C@@H]2O)cc1Cc1ccc(-c2cnn(C)c2)cc1F` [Example 2, 4-[2-Fluoro-4-(1-methyl-1H-pyrazol-4-yl)benzyl]-N-[(3R,4S)-3-hydroxytetrahydro-2H-pyran-4-yl]-5-methylpyridine-2-carboxamide], which EC50 is on record?
Answer: The EC50 was 0.125 µM.

Question: For `COc1cnc(C(=O)N[C@H]2CCOC[C@@H]2O)cc1Cc1ccc(-n2cccn2)cc1` [Example 15, N-[(3R,4S)-3-Hydroxytetrahydro-2H-pyran-4-yl]-5-methoxy-4-[4-(1H-pyrazol-1-yl)benzyl]pyridine-2-carboxamide], which EC50 is on record?
Answer: The EC50 was 0.065 µM.

Question: How did the EC50 turn out when `Cc1cnc(C(=O)N[C@H]2CCCC[C@@H]2O)cc1Cc1ccc(Cl)nc1` [Example 51, 4-[(6-chloropyridin-3-yl)methyl]-N-[(1S,2S)-2-hydroxycyclohexyl]-5-methylpyridine-2-carboxamide] was run?
Answer: Its EC50 is 2.83 µM.

Question: With `Cc1cnc(C(=O)N[C@H]2CCOC[C@@H]2O)cc1Cc1ccc(-n2cccn2)cc1` [Example 9, N-[(3R,4S)-3-Hydroxytetrahydro-2H-pyran-4-yl]-5-methyl-4-[4-(1H-pyrazol-1-yl)benzyl]pyridine-2-carboxamide] as the compound, how does the EC50 read?
Answer: Its EC50 is 0.109 µM.

Question: Which EC50 does the source give for `Cc1cnc(C(=O)NC2CCOCC2)cc1Cc1ccc(-n2cccn2)cc1` [Example 33, 5-methyl-4-[4-(1H-pyrazol-1-yl)benzyl]-N-(tetrahydro-2H-pyran-4-yl)pyridine-2-carboxamide] here?
Answer: Its EC50 is 3.44 µM.

Question: How did the EC50 turn out when `Cc1cnc(C(=O)N[C@H]2CCOC[C@@H]2O)cc1C(F)c1ccc(-c2cscn2)cc1` (single isomer, unassigned; diastereomer 1) [Example 59] was run?
Answer: Its EC50 is 1.83 µM.

Question: For `Cc1cnc(C(=O)N[C@H]2CCOC[C@@H]2O)cc1Cc1ccc(-c2cn[nH]c2)cc1` [Example 66, N-[(3R,4S)-3-hydroxytetrahydro-2H-pyran-4-yl]-5-methyl-4-[4-(1H-pyrazol-4-yl)benzyl]pyridine-2-carboxamide], which EC50 is on record?
Answer: The EC50 was 0.114 µM.

Question: `Cc1cnc(NC(=O)c2cc(Cc3ccc(-n4cccn4)cc3)c(C)cn2)nc1` [Example 24, 5-methyl-N-(5-methylpyrimidin-2-yl)-4-[4-(1H-pyrazol-1-yl)benzyl]pyridine-2-carboxamide] was tested. Which EC50 did it give?
Answer: The EC50 was 4.39 µM.

Question: With `COc1ccc(Cc2cc(C(=O)N[C@H]3CCCC[C@@H]3O)nc(C)c2Cl)cc1` [Example 25, 5-chloro-N-[(1S,2S)-2-hydroxycyclohexyl]-4-(4-methoxybenzyl)-6-methylpyridine-2-carboxamide] as the compound, how does the EC50 read?
Answer: Its EC50 is 1.14 µM.

Question: How did the EC50 turn out when `COc1cnc(C(=O)N[C@H]2CCCC[C@@H]2O)cc1Cc1ccc(-c2cocn2)cc1` [Example 71, N-[(1S,2S)-2-hydroxycyclohexyl]-5-methoxy-4-[4-(1,3-oxazol-4-yl)benzyl]pyridine-2-carboxamide] was run?
Answer: The EC50 was 0.125 µM.
